Experimental data published in ChEMBL document CHEMBL5154863, “Design and synthesis of quinolinium-based derivatives targeting FtsZ for antibacterial evaluation and mechanistic study” (Eur J Med Chem, 2022).
Activity calls are given as the source filed them. The rule behind the calls is not given here.

Tests used:
[1] = Ratio of MBC for bactericidal activity against Bacillus subtilis CMCC (B) 63501 to MIC for antibacterial activity against Bacillus subtilis CMCC (B) 63501; format: functional
[2] = Ratio of MBC for bactericidal activity against Enterococcus faecium ATCC 700221 to MIC for antibacterial activity against Enterococcus faecium ATCC 700221; format: functional
[3] = target: T1, Cell division protein FtsZ (Staphylococcus aureus) (UniProt P0A031); assay: Induction of Staphylococcus aureus FtsZ polymerization expressed in Escherichia coli BL21 (DE3) assessed as increase in absorbance at 2 to 8 ug/ml in presence of GTP by microplate reader method; conditions: dose 2-8 µg/ml, DDE = dose-dependent effect
T1 sequence (whole entry): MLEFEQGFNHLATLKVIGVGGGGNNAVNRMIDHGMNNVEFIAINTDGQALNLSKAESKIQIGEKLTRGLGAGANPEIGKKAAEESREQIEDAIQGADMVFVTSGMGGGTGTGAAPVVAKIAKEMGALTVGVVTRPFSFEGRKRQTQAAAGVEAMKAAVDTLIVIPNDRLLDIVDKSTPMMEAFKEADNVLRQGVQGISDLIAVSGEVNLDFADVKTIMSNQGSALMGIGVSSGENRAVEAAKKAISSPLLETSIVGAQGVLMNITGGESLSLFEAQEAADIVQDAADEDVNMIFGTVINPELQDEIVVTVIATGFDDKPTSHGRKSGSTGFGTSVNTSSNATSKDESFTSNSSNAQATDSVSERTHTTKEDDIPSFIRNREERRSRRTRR

Staphylococcus aureus [4] = assay: Antibacterial activity against Staphylococcus aureus ATCC 29213 assessed as inhibition of bacterial growth incubated for 20 to 24 hrs by broth micro dilution method; format: functional; conditions: time 20-24 hrs
Staphylococcus aureus [5] = assay: Antibacterial activity against methicillin-resistant Staphylococcus aureus ATCC 43300 assessed as inhibition of bacterial growth incubated for 20 to 24 hrs by broth micro dilution method; format: functional; conditions: time 20-24 hrs
Staphylococcus aureus [6] = assay: Antibacterial activity against methicillin-resistant Staphylococcus aureus ATCC 33592 assessed as inhibition of bacterial growth incubated for 20 to 24 hrs by broth micro dilution method; format: functional; conditions: time 20-24 hrs
Staphylococcus aureus [7] = assay: Antibacterial activity against methicillin-resistant Staphylococcus aureus ATCC BAA-1720 assessed as inhibition of bacterial growth incubated for 20 to 24 hrs by broth micro dilution method; format: functional; conditions: time 20-24 hrs
Staphylococcus aureus [8] = assay: Antibacterial activity against vancomycin-intermediate Staphylococcus aureus Mu50 assessed as inhibition of bacterial growth incubated for 20 to 24 hrs by broth micro dilution method; format: functional; conditions: time 20-24 hrs
[9] = tested on: Staphylococcus epidermidis; assay: Antibacterial activity against Staphylococcus epidermidis ATCC 12228 assessed as inhibition of bacterial growth incubated for 20 to 24 hrs by broth micro dilution method; format: functional; conditions: time 20-24 hrs
Bacillus subtilis [10] = assay: Antibacterial activity against Bacillus subtilis CMCC (B) 63501 assessed as inhibition of bacterial growth incubated for 20 to 24 hrs by broth micro dilution method; format: functional; conditions: time 20-24 hrs
Enterococcus faecium [11] = assay: Antibacterial activity against Enterococcus faecium ATCC 49624 assessed as inhibition of bacterial growth incubated for 20 to 24 hrs by broth micro dilution method; format: functional; conditions: time 20-24 hrs
Enterococcus faecalis = assay: Antibacterial activity against Enterococcus faecalis ATCC 29212 assessed as inhibition of bacterial growth incubated for 20 to 24 hrs by broth micro dilution method; format: functional; conditions: time 20-24 hrs
Enterococcus faecium [12] = assay: Antibacterial activity against vancomycin resistant Enterococcus faecium ATCC 700221 assessed as inhibition of bacterial growth incubated for 20 to 24 hrs by broth micro dilution method; format: functional; conditions: time 20-24 hrs
Enterococcus faecium [13] = assay: Antibacterial activity against vancomycin-resistant Enterococcus faecium clinical isolate assessed as inhibition of bacterial growth incubated for 20 to 24 hrs by broth micro dilution method; format: functional; conditions: time 20-24 hrs
Escherichia coli [14] = assay: Antibacterial activity against Escherichia coli ATCC 25922 assessed as inhibition of bacterial growth incubated for 20 to 24 hrs by broth micro dilution method; format: functional; conditions: time 20-24 hrs
Escherichia coli [15] = assay: Antibacterial activity against Escherichia coli ATCC 8739 assessed as inhibition of bacterial growth incubated for 20 to 24 hrs by broth micro dilution method; format: functional; conditions: time 20-24 hrs
Escherichia coli [16] = assay: Antibacterial activity against NDM-1 expressing Escherichia coli ATCC BAA2469 assessed as inhibition of bacterial growth incubated for 20 to 24 hrs by broth micro dilution method; format: functional; conditions: time 20-24 hrs
Acinetobacter baumannii = assay: Antibacterial activity against multi-drug resistant Acinetobacter baumannii ATCC 19606 assessed as inhibition of bacterial growth incubated for 20 to 24 hrs by broth micro dilution method; format: functional; conditions: time 20-24 hrs
Pseudomonas aeruginosa = assay: Antibacterial activity against […] Pseudomonas aeruginosa ATCC 27853 assessed as inhibition of bacterial growth incubated for 20 to 24 hrs by broth micro dilution method; format: functional; conditions: time 20-24 hrs
Klebsiella pneumoniae = assay: Antibacterial activity against NDM-1 expressing Klebsiella pneumoniae ATCC BAA 2470 assessed as inhibition of bacterial growth incubated for 20 to 24 hrs by broth micro dilution method; format: functional; conditions: time 20-24 hrs
Bacillus subtilis [17] = assay: Bactericidal activity against Bacillus subtilis CMCC (B) 63501 assessed as inhibition of bacterial growth incubated for 24 hrs by resazurin dye based microtiter plate assay; format: functional
Staphylococcus aureus [18] = assay: Bactericidal activity against Staphylococcus aureus ATCC 29213 assessed as inhibition of bacterial growth incubated for 24 hrs by resazurin dye based microtiter plate assay; format: functional
Staphylococcus aureus [19] = assay: Bactericidal activity against Staphylococcus aureus ATCC 43300 assessed as inhibition of bacterial growth incubated for 24 hrs by resazurin dye based microtiter plate assay; format: functional
Enterococcus faecium [20] = assay: Bactericidal activity against Enterococcus faecium ATCC 700221 assessed as inhibition of bacterial growth incubated for 24 hrs by resazurin dye based microtiter plate assay; format: functional
[21] = Ratio of MBC for bactericidal activity against Staphylococcus aureus ATCC 29213 to MIC for antibacterial activity against Staphylococcus aureus ATCC 29213; format: functional
[22] = Ratio of MBC for bactericidal activity against Staphylococcus aureus ATCC 43300 to MIC for antibacterial activity against Staphylococcus aureus ATCC 43300; format: functional
Staphylococcus aureus [23] = assay: Antibacterial activity against methicillin-resistant Staphylococcus aureus ATCC BAA41 assessed as fractional inhibitory concentration index incubated for 24 hrs by checker board assay; format: functional
Staphylococcus aureus [24] = assay: Antibacterial activity against methicillin-resistant Staphylococcus aureus ATCC BAA41 assessed as inhibition of bacterial growth incubated for 24 hrs by checker board assay; format: functional
Staphylococcus aureus [25] = assay: Synergistic antibacterial activity against methicillin-resistant Staphylococcus aureus ATCC BAA41 assessed as inhibition of bacterial growth incubated for 24 hrs in presence of methicillin by checker board assay; format: functional
Bacillus subtilis [26] = assay: Induction of morphological changes in Bacillus subtilis CMCC (B) 63501 assessed as elongation of bacterial cell at 0.5 times MIC for 4 hrs (reference value: 3 to 5 um) by microscopic analysis; format: functional
Staphylococcus aureus [27] = assay: Induction of morphological changes in Staphylococcus aureus ATCC 29213 assessed as enlargement of cell size at 0.5 times MIC for 4 hrs by microscopic analysis; format: functional, organism-based
[28] = target: T1, Cell division protein FtsZ (Staphylococcus aureus); assay: Binding affinity to Staphylococcus aureus FtsZ assessed as equilibrium binding constant by isothermal titration calorimetry
[29] = target: T1, Cell division protein FtsZ (Staphylococcus aureus); assay: Binding affinity to Staphylococcus aureus FtsZ assessed as increase in alpha helix structure at 8 ug/ml incubated for 30 mins by circular dichroism method; conditions: dose 8.0 µg/ml
[30] = target: T1, Cell division protein FtsZ (Staphylococcus aureus); assay: Binding affinity to Staphylococcus aureus FtsZ assessed as decrease in beta turn structure at 8 ug/ml incubated for 30 mins by circular dichroism method; conditions: dose 8.0 µg/ml
[31] = target: T1, Cell division protein FtsZ (Staphylococcus aureus); assay: Binding affinity to Staphylococcus aureus FtsZ assessed as decrease in random coil structure at 8 ug/ml incubated for 30 mins by circular dichroism method; conditions: dose 8.0 µg/ml
[32] = target: T1, Cell division protein FtsZ (Staphylococcus aureus); assay: Binding affinity to Staphylococcus aureus FtsZ assessed as decrease in other structure at 8 ug/ml incubated for 30 mins by circular dichroism method; conditions: dose 8.0 µg/ml
[33] = target: T2, Cell division protein FtsZ (Staphylococcus aureus, UniProt P0A031); assay: Binding affinity to Staphylococcus aureus FtsZ assessed as dissociation constant by isothermal titration calorimetry
T2 sequence (P0A031 whole entry): T1 sequence (whole entry)

For CCCCCNc1cc(/C=C/c2ccc(N(C)C)cc2)[n+](C)c2ccccc12.[I-], the Ratio [1] was 1, the Ratio [2] was 2 and the Activity [3] was “Dde”. The MIC (Staphylococcus aureus [4]) was 2 µg/mL, the MIC (Staphylococcus aureus [5]) was 2 µg/mL and the MIC (Staphylococcus aureus [6]) was 2 µg/mL. The MIC (Staphylococcus aureus [7]) was 1 µg/mL, the MIC (Staphylococcus aureus [8]) was 4 µg/mL and the MIC [9] was 1 µg/mL. The MIC (Bacillus subtilis [10]) was 4 µg/mL, the MIC (Enterococcus faecium [11]) was 8 µg/mL and the MIC (Enterococcus faecalis) was 4 µg/mL. The MIC (Enterococcus faecium [12]) was 4 µg/mL, the MIC (Enterococcus faecium [13]) was 4 µg/mL and the MIC (Escherichia coli [14]) was 64 µg/mL. The MIC (Escherichia coli [15]) was > 64 µg/mL, the MIC (Escherichia coli [16]) was > 64 µg/mL and the MIC (Acinetobacter baumannii) was > 64 µg/mL. The MIC (Pseudomonas aeruginosa) was > 64 µg/mL, the MIC (Klebsiella pneumoniae) was > 64 µg/mL and the MBC (Bacillus subtilis [17]) was 4 µg/mL. It also gave an MBC (Staphylococcus aureus [18]) of 8 µg/mL, an MBC (Staphylococcus aureus [19]) of 8 µg/mL and an MBC (Enterococcus faecium [20]) of 8 µg/mL. For the same compound, the Ratio [21] was 4, the Ratio [22] was 4 and the “fractional inhibitory concentration index (FICI)” value (Staphylococcus aureus [23]) was 0.375. It also gave an MIC (Staphylococcus aureus [24]) of 4 µg/mL, an MIC (Staphylococcus aureus [25]) of 0.5 µg/mL and an Activity (Bacillus subtilis [26]) of 30 um. The Activity (Staphylococcus aureus [27]) was “Active”, the Kb [28] was 2.01 10^5/M and the Activity [29] was “Active”. The Activity [30] was “Active”, the Activity [31] was “Active” and the Activity [32] was “Active”. For the same compound, the Kd [33] was 2.38 µM.
